The test system of this experiment is cholecystokinin (CCK) level in plasma. Description: Plasma CCK levels in human volunteers after ingestion of test substance in orange juice (RIA). Format: in vivo. The note with it: healthy fasted human volunteers, n = 8. How it is done:
The experiment described below was performed in a double-blind, four period, randomised, cross-over, placebo controlled study.
Eight healthy human volunteers were divided into four groups of two, and were refrained from any food overnight.
The experiment was repeated four times such, that all the eight volunteers eventually obtained aal the four test substances. During the four hours following the ingestion of the orange juice, blood was taken from the test persons at t=0, 30, 60 90, 120, 180 and 240 minutes after ingestion. CCK analysis was carried out using a radio-immunoassay (RIA) kit of Euro-Diagnostica (cat nr. #RB302) according to the instructions of the manufacturer.

For `N[C@@H](Cc1c[nH]c2ccccc12)C(=O)O` [Tryptophan, tryptophan], the “Mean CCK levels in plasma” value is, setting by setting: (0 minutes after ingestion, oral in 200 ml orange juice (25 g glucose), mean ± spread) 0.64 ± 0.78 pmol/L; (30 minutes after ingestion, oral in orange juice) 1.49 ± 1.04 pmol/L; (60 minutes after ingestion, oral in orange juice) 1.05 ± 1.06 pmol/L; (90 minutes after ingestion, oral in orange juice) 0.83 ± 0.84 pmol/L; (120 minutes after ingestion, oral in orange juice) 0.34 ± 0.11 pmol/L; (180 minutes after ingestion, oral in orange juice) 0.30 ± 0.00 pmol/L. For the same compound, for the setting “240 minutes after ingestion, oral in orange juice”, the “Mean CCK levels in plasma” value came to 0.30 ± 0.00 pmol/L.

(Values after patent US7582601B2, “Use of tryptophan rich peptides” (Campina B.V., priority 2003, dated 2009).)
